Results taken from the OPERA property sets (Mansouri et al. 2018).

Compound	logP
[Br-].c1ccc(C[n+]2cccc3ccccc32)cc1	-0.82
CCN(CC)CCNC(=O)c1cc(S(C)(=O)=O)ccc1OC	0.9
O=C1CN=C(c2ccccc2F)c2cc(Cl)ccc2N1CC(O)CO (stereo unspecified)	1.51
COc1ccccc1N=NN(C)C	2.34
O=C1CCC(=O)N1c1ccccc1C(F)(F)F	0.76
COC(=O)C(C#N)=NNc1cc(C(F)(F)F)ccc1Cl	4.42
OCC1OC(Oc2ccc(I)c(OC3OC(CO)C(O)C(O)C3O)c2I)C(O)C(O)C1O (stereo unspecified)	-1.31
COCC(O)Cn1cc([N+](=O)[O-])nc1C (stereo unspecified)	-0.36
CCCCCC[n+]1cc(C)cc(C)c1.[I-]	-1.19
CSc1nnc(C)c(=O)n1N	-0.16
C=CCc1c(OCC)cc(Cc2cnc(N)nc2N)cc1OCC	3.08
O=C(O)Cc1ccc(S(=O)(=O)F)cc1	1.86
CCC(CC)(OC)C(=O)NC(N)=O	0.96
Cc1[nH]c(=O)n(OCC(C)C)c(=O)c1Br	1.23
CCCCCCCCCCCCCCCC[n+]1ccc(C)cc1C.[I-]	3.9
CCCCCCCCCCCC[n+]1ccc(C)c(C)c1.[I-]	1.75
CC1COCCN1N=O (stereo unspecified)	-0.03
CNC(=NC#N)NC	-0.4
O=C1CN=C(c2ccccc2F)c2cc(I)ccc2N1CC(O)CO (stereo unspecified)	1.81
CCOC(=O)CN(C(=O)CCl)c1ccccc1OC	1.78
O=C(CN1CCCCC1)Nc1cccc(Cl)c1	3.45
C=CC(CC)OC(N)=O (stereo unspecified)	1.09
Cc1[nH]c(=O)n(OCCCl)c(=O)c1Br	0.3
O=C1CCC(=O)N1c1ccccc1Br	0.65
Cc1ccccc1-c1nc(N)nc(N)n1	1.26
NS(=O)(=O)c1nc2ccc(O)cc2s1	1.13

Compound	logP
CC(=O)N(C)/N=N/c1ccc(F)cc1	2.77
O=S(=O)(Nc1cccc(O)c1)C(F)(F)F	2.51
CC(=O)NNC(=O)c1ccccn1	-0.57
CSC(C)=NOC(=O)N(C)SN(C)C(=O)c1ccccc1	2.2
Cc1cc([N+](=O)[O-])c2ccccc2[n+]1[O-]	1.25
CN(C)/N=N/c1cc(C(N)=O)cc(C(N)=O)c1	0.22
CCC(C)C(=O)NN (stereo unspecified)	-0.33
CCCCCC[n+]1ccccc1C.[I-]	-1.71
COc1cc(Cc2cnc(N)nc2N)ccc1OCc1ccccc1	2.66
CC1CCN(N=O)CC1	1.05
CCCC1(CC)C(=O)NC(=O)N(C)C1=O (stereo unspecified)	1.65
CCCCN(SN(C)C(=O)ON=C(C)SC)C(=O)c1ccccc1	3.4
COC(=O)C(C#N)=NNc1cccc(C(F)(F)F)c1	3.78
N#Cc1ccc([N+](=O)[O-])n1CCO	0.6
CC(=O)Nc1c(C)cc(O)c(C)c1C	0.75
Clc1cc(Cl)c(-c2ccccc2)cc1Cl	5.81
CCCC(=O)NC(=O)C1CCC1	0.41
COc1cc(Cc2cnc(N)nc2N)cc(OC)c1C(=O)CS(C)(=O)=O	-0.31
O=S1(=O)NC(C2CC=CCC2)=Nc2ccccc21 (stereo unspecified)	2.05
COc1ccc2c(c1)N=C(C)NS2(=O)=O	0.56
ClC1C(Cl)C(Cl)C(Br)C(Br)C1Cl (stereo unspecified)	3.88
O=S1(=O)NC(C2CC3C=CC2C3)=Nc2ccccc21 (stereo unspecified)	2.06
CC(C)C1=Nc2cc(Cl)ccc2S(=O)(=O)N1	2
ClC1C(Cl)C(Br)C(Cl)C(Br)C1Cl (stereo unspecified)	3.98
O=C(O)CCSc1c[nH]c2ccccc12	2.15
O=S(=O)(Nc1ccc(Cl)cc1Cl)C(F)(F)F	3.88

Compound	logP
NC(=O)c1cccs1	0.52
CCCCC1OC(=O)c2cc(Cl)ccc21 (stereo unspecified)	3.53
COc1cc(Cc2cnc(N)nc2N)cc(OC)c1C(=O)N(C)C	-0.21
Clc1cc(Cl)c(Cl)c(-c2c(Cl)ccc(Cl)c2Cl)c1	7.15
CC(=O)C(C#N)=NNc1ccc([N+](=O)[O-])cc1[N+](=O)[O-]	3.4
S=C=Nc1ccc(Nc2ccccc2)cc1	4.94
NC(=O)Cn1nnc2ccccc21	-0.1
O=[N+]([O-])c1nccn1CCCOc1ccccc1	2.38
O=C(NC(CO)C(O)c1ccc([N+](=O)[O-])cc1)c1ccccc1 (stereo unspecified)	1.63
CCN(CCOC(C)=O)c1ccccc1	2.04
COP(=O)(NC(C)(C)C)SC (stereo unspecified)	0.96
CN(C)CCC=C1c2ccccc2CCc2c(Cl)cccc21	5.55
CC(=O)OCCN1CCS/C1=N/c1ncc([N+](=O)[O-])s1	1.88
CN(N=O)C1CCCCC1	1.43
O=S1(=O)NC(C(Cl)Cl)=Nc2cc(Cl)ccc21	1.81
COc1cc(Cc2cnc(N)nc2N)cc(OC)c1C(=O)OC(C)C	1.72
CSc1ccccc1/N=N/N(C)C	3.13
CCN(CC)CCNC(=O)c1cc(Cl)cc(Cl)c1	3.77
Nc1cccc(OC(=O)CNC(=O)c2ccccc2)c1	1.3
Nc1ncnc2nc(-c3cccc([N+](=O)[O-])c3)[nH]c12	1.93
CCOC(=O)CCN1C(=O)C=CC1=O	0.41
OCC1OC(Oc2cccc(C(F)(F)F)c2)C(O)C(O)C1O (stereo unspecified)	0.49
CC(=O)N=C1SC(=Cc2ccc([N+](=O)[O-])o2)C(=O)N1C	1.21
CNC=CC(C)c1ccccn1 (stereo unspecified)	1.13
COC12C(COC(N)=O)C3=C(C(=O)C(C)=C(N)C3=O)N1CC1C2N1COC(=O)c1ccccc1 (stereo unspecified)	1.26
COC12C(COC(N)=O)C3=C(C(=O)C(C)=C(Nc4cccnc4)C3=O)N1CC1NC12 (stereo unspecified)	0.52

Compound	logP
CCc1n[nH]c(=O)[nH]c1=O	0.22
O=CNC=Cc1ccccc1	1.95
COP(=O)(OC)Oc1ccc([N+](=O)[O-])cc1Cl	1.83
O=C(O)Cc1ccc(OCc2ccccc2)cc1	2.72
C=CCOn1c(=O)[nH]c(C)c(Br)c1=O	0.32
Cc1ccc2c([N+](=O)[O-])cc[n+]([O-])c2c1	1.42
Clc1cc2ccccc2nn1	1.57
O=[N+]([O-])c1nccn1C1OC(CO)C(O)C(O)C1O (stereo unspecified)	-1.4
CCOc1cc(Cc2cnc(N)nc2N)cc(OCC)c1N	1.69
CCCCC1OC(=O)c2cc(NC(C)=O)ccc21 (stereo unspecified)	2.77
OC1C(Cl)C(Cl)C(Cl)C(Cl)C1Cl (stereo unspecified)	2.54
CCCCC(C)n1nnc2ccccc21 (stereo unspecified)	3.44
CC(=O)Nc1cccc(OC(C)=O)c1	1.03
COc1cc(OC)c(N=C2NCCN2)cc1Cl	1.38
O=[N+]([O-])c1ccc(C=Cc2nccc(Cl)n2)o1	1.31
CS(=O)(=O)c1cnc2ccccc2n1	0.79
NC(=S)NN=Cc1cccc(O)c1	1.61
NNC(=O)c1ccc(N)cc1	-0.75
CC(=O)C(C#N)=NNc1cc(Cl)cc(Cl)c1	4.68
CC1C(C)N(N=O)C(C)C(C)N1N=O (stereo unspecified)	0.91
CCCCCCc1nnc(SC)n(N)c1=O	2.68
O=C(O)COc1ccccc1-c1ccccc1	2.83
CN(C)/N=N/c1ccccc1Cl	3.03
COC1OCC(O)C(NC(=O)N(C)N=O)C1O (stereo unspecified)	-1.08
CCCC(=O)N(C)SN(C)C(=O)ON=C(C)SC	2.2
CCOC(=O)c1c(OCC)cc(Cc2cnc(N)nc2N)cc1OCC	2.28

Compound	logP
Nc1nc(N)nc(-c2ccc(Cl)cc2Cl)n1	2.07
CNC(=O)Oc1ccc(C(C)(C)C)c(C)c1	3.38
COc1cc(Cc2cnc(N)nc2N)cc(I)c1OC	2.33
CC(=O)c1cccc(N2C(N)=NC(N)=NC2(C)C)c1	-0.22
COc1ccc(OC2OC(CO)C(O)C(O)C2O)cc1 (stereo unspecified)	-0.73
O=C(CNC(=O)c1ccccc1)Oc1cccc(C(F)(F)F)c1	3.3
OCC1OC(Oc2ccc3ccccc3c2)C(O)C(O)C1O (stereo unspecified)	0.76
CSC(C)=NOC(=O)N(C)SN(C(=O)c1ccc(C)cc1)C(C)C	3.4
NC1CC2OC1c1ccccc12 (stereo unspecified)	0.75
CC(=O)NC1=C(Nc2ccccc2)C(=O)c2ccccc2C1=O	1.73
CCOC(=O)C(=Cc1ccc(OC)c(OC)c1)C(C)=O	2.02
C#CC(C=C)(CC)OC(N)=O (stereo unspecified)	1.09
CN(C)c1ncnc2sccc12	1.82
CNC(=O)ON=C(C)C(C)(C)[N+](=O)[O-]	0.66
OC(C1CO1)C(O)C1CO1 (stereo unspecified)	-1.29
CC(C)N1CCOC(c2cccc(Cl)c2)C1 (stereo unspecified)	3.27
CCCCCCOn1c(=O)[nH]c(C)c(Br)c1=O	2.48
COCN1C(=O)C(O)N=C(c2ccccc2)c2cc(N)ccc21 (stereo unspecified)	0.75
CNC(=O)c1ccc(S(N)(=O)=O)cc1	-0.31
COCC1=Nc2cc(Cl)ccc2S(=O)(=O)N1	1.12
FC(F)(F)COC1C(Cl)C(Cl)C(Cl)C(Cl)C1Cl (stereo unspecified)	4.15
COCCOc1ccccc1OCCOC	1.12
OCC1OC(SCCc2ccccc2)C(O)C(O)C1O (stereo unspecified)	-0.1
CS(=O)(=O)CCCOc1ccc([N+](=O)[O-])cc1	0.93
CC(C)NNC(=O)C(C)(C)Oc1ccc(Cl)cc1	2.56
CN(C)c1ccc(C(N)=O)cc1	1.14

Compound	logP
COP(=O)(OC)Oc1ccccc1	1.22
CNC1C2CCC1c1ccccc12 (stereo unspecified)	2.37
COc1ccc(Cc2cnc(N)nc2N)cc1Br	1.88
Brc1ccc(N=C2NCCN2)cc1	1.75
CCCCCCc1nnc(N)o1	1.43
CCCCCCNP(=O)(OC)SC (stereo unspecified)	1.11
CCCCNc1ccccc1C(N)=O	2.33
CSC(C)=NOC(=O)N(C)SN(C)C(=O)c1ccccc1Cl	2.5
CN(Cc1ccc([N+](=O)[O-])cc1)N=Nc1ccc(C(=O)O)cc1	4.03
COc1cc(Cc2cnc(N)nc2N)cc(Cl)c1OC	1.92
NN=C1c2ccccc2C(=O)C1C(=O)C(c1ccccc1)c1ccccc1 (stereo unspecified)	3.62
O=C(NO)Nc1ccc(Cl)cc1	1.39
Cc1cc(C)c(NC2=NCCN2)c(Cl)c1	2.1
CC(=O)Nc1cccc(OC(=O)CNC(=O)c2ccccc2)c1	1.7
S=c1[nH]cnc2[nH]cnc12	0.01
Cc1cccc2c([N+](=O)[O-])cc[n+]([O-])c12	1.59
O=C(O)CCCCCCCN1C(=O)C=CC1=O	1.99
COc1ccccc1C(=O)NCCCN	0.2
CC(N)Cc1ccc2c(c1)OCO2 (stereo unspecified)	1.64
O=C(Cn1ccnc1[N+](=O)[O-])NCCO	-1.34
Oc1nc2ccccc2nc1O	0.2
